Measurements as given in US20260068888A1, “ALGICIDAL FOAM COMPOSITIONS AND METHODS OF MAKING AND USING THEREOF” (THE ADMINISTRATORS OF THE TULANE EDUCATIONAL FUND, priority 2024, published 2026).

System: Karenia brevis (KB) cells
Test: SYTOX-Green assay of cell-membrane integrity
Format: cell-based
Experimental: SYTOX-Green Assay. The effects of treatments on the cells were also investigated utilizing the SYTOX-green assay, a technique designed to evaluate cell-membrane integrity. The SYTOX-green dye selectively permeates through compromised cell membranes and produces green-fluorescent color upon interaction with nucleic acid. […] For the assay protocol, a 1.0 ml aliquot of the cell suspension was incubated with 10 μl of the dye solution ([…]) for 15 minutes in the dark, resulting in a final dye concentration of […]. The dye concentration and the incubation time were validated by the heat-treated K. brevis cells for 1 h at 60° C. The cell suspension was then transferred in an optically clear well plate for visualization under an inverted fluorescence microscope (Ex: 465-495 nm; Em: 515 nm, long pass).

[1] = gallic acid 5 mg/mL in the foam stock solution, Tween 80 1.25 mg/mL

Q: For O.O=C(O)c1cc(O)c(O)c(O)c1 [gallic acid, Gallic acid monohydrate], which “time by which non-viable cells become lysed (loss of green fluorescence)” value [1] is on record?
A: ≤ 6 h

Q: What about the “time to membrane compromised cells (SYTOX-green)” value [1] of the same molecule?
A: ≤ 3 h

Q: What about the “cell green fluorescence (lysis), SYTOX-green” value (gallic acid in foam, 24 hours) of the same molecule?
A: almost total loss of cell green fluorescence
